Patent US10646489B2, “Compositions and methods for increasing energy metabolism” (NuSirt Sciences, Inc., priority 2012, dated 2020)

Key:
C2C12 myotubes [1] = assay: Fatty acid oxidation (O2 consumption response to palmitate injection) in C2C12 myotubes / muscle cells; format: cell-based; conditions: C2C12 myotubes; sildenafil 1 nM (change from baseline) or leucine 0.5 mM alone
Description: Fatty acid oxidation was measured as O2 consumption response to palmitate injection and is expressed as % change from pre-injection baseline. […] Data expressed as % change from control value. *p=0.013; **p=0.015. The output of the pathways can be measured using one or more methods, disclosed herein and/or known in the art. […] Mitochondrial biogenesis can be measured using a mitochondrial probe by using fluorescence. AMPK activity can be determined by measuring AMPK phosphorylation via an ELISA assay or by Western blot. Sirt1 activity can be determined by measuring deacetylation of a substrate, which can be detected using a fluorophore. […] Treatment with 0.5 mM leucine corresponds to a circulating level of the same molarity achieved by administering about 1,125 mg of dietary leucine to a human subject. Treatment with 0.25 mM leucine corresponds to a circulating level of the same molarity achieved by administering about 300 mg of dietary leucine to a human subject.

3T3-L1 adipocytes [2] = assay: Fatty acid oxidation in 3T3-L1 adipocytes / adipocytes; format: cell-based; conditions: 3T3-L1 adipocytes; leucine 0.5 mM or HMB 5 μM alone; p<0.05
Source text: (§1) Data expressed as % change from control value.*p<0.05. The output of the pathways can be measured using one or more methods, disclosed herein and/or known in the art. […] Mitochondrial biogenesis can be measured using a mitochondrial probe by using fluorescence. AMPK activity can be determined by measuring AMPK phosphorylation via an ELISA assay or by Western blot. Sirt1 activity can be determined by measuring deacetylation of a substrate, which can be detected using a fluorophore. […] Treatment with 0.5 mM leucine corresponds to a circulating level of the same molarity achieved by administering about 1,125 mg of dietary leucine to a human subject. Treatment with 0.25 mM leucine corresponds to a circulating level of the same molarity achieved by administering about 300 mg of dietary leucine to a human subject.

C2C12 myotubes [3] = assay: Glucose utilization (extracellular acidification response to glucose injection) in C2C12 myotubes / muscle cells; format: cell-based; conditions: C2C12 myotubes; leucine alone
Description: (§2) Glucose utilization was measured as extracellular acidification response to glucose injection. *p=0.04. […] Treatment with 0.5 mM leucine corresponds to a circulating level of the same molarity achieved by administering about 1,125 mg of dietary leucine to a human subject. Treatment with 0.25 mM leucine corresponds to a circulating level of the same molarity achieved by administering about 300 mg of dietary leucine to a human subject.

3T3-L1 adipocytes [4] = assay: Glucose utilization (extracellular acidification response to glucose injection) in 3T3-L1 adipocytes / adipocytes; format: cell-based; conditions: 3T3-L1 cells; leucine alone; p<0.05
Description: as §2, with “*p=0.05.” for “*p=0.04.”

C2C12 myotubes [5] = assay: Mitochondrial biogenesis measured as mitochondrial mass in C2C12 myotubes; format: cell-based; conditions: C2C12 cells treated with leucine alone; p<0.05
Description: as §1, with “The” for “Data expressed as % change from control value.*p<0.05. The”

diet-induced obese mouse = assay: Liver mass in the diet-induced obese mouse; format: in vivo; conditions: 6 week treatment
Description: The interactive effects of icariin, a flavanol with specific PDE5 inhibitory properties, on glycemia and insulin sensitivity were assessed in the diet-induced obese mouse, which can be used as a murine model of type 2 diabetes. Male C57/BL6 mice were placed on standard low-fat chow (control; 10% energy from fat) or high fat (60% energy from fat, Research Diets # D12492, Research Diets, Inc, New Brunswick, N.J.) at six weeks of age to induce insulin resistance. […] The animals were then randomized to the following diets for an additional six weeks, with 10 animals per group: Low fat diet (LFD) control; High fat diet (HFD) control; HFD+leucine (24 g/kg diet, a two-fold increase over control levels)1 HFD+leucine (24 g/kg diet)+icariin (25 mg/kg diet). […] A chronic high fat diet is associated with other deleterious consequences. For example, a chronic high fat diet can increase liver mass, likely resulting from fatty accumulation in the liver. Chronic high fat feeding is also associated with chronic inflammation, which can contribute to a number of diseases. To determine the effects of leucine or leucine+icariin administration on additional consequences of high fat feeding, liver mass and C-reactive protein (a biomarker of inflammation) were assessed in all experimental groups at the end of the 6 week study. […] HFD, FIG. 26). […]

With leucine the “fatty acid oxidation, agent alone” value (C2C12 myotubes [1]) was 73%, the “fatty acid oxidation, agent alone” value (3T3-L1 adipocytes [2]) was 27% and the “glucose utilization, agent alone” value (C2C12 myotubes [3]) was 9.3%. For the same substance, the “glucose utilization, agent alone” value (3T3-L1 adipocytes [4]) was 48.6%, the mitochondrial biomass (C2C12 myotubes [5]) was 22.05+/−0.4 AFU/μg protein and the “reduction in liver mass vs. untreated HFD mice” value (diet-induced obese mouse) was ~10%.
